Experimental findings from US9901097B2, “Agricultural and horticultural fungicidal composition” (Nippon Soda Co., Ltd., priority 2011, dated 2018) are described below.

Where two headings read alike, the source gives them in different places.

Test [1] concerns Botrytis cinerea. Nature of the test: Sterilization test (growth inhibition of Botrytis cinerea in potato dextrose medium, 96-well microplate, turbidity 405 nm). The following applies: for inhibition at 2 ppm / inhibition at 10 ppm / inhibition at 0.4 ppm / inhibition at 0.08 ppm / inhibition at 0.02 ppm: Botrytis cinerea, read-out: Growth inhibition rate; for inhibition at 0.4 ppm: drug II alone 0.4 ppm; for inhibition at 0.02 ppm: drug II alone 0.02 ppm. The format is cell-based. On the procedure: The solutions thus obtained were mixed to prepare fungicidal compositions.
Conidia of Botrytis cinerea were added to and dispersed in a potato dextrose culture medium. A fungicidal composition was added thereto and mixed. This was dispensed in a 96-well microplate and cultured at 20° C. for 3 days in a dark setting. Then, the turbidity was measured at a wavelength of 405 nm in a microplate reader. From comparison with the measured value of turbidity in the case of non-treatment (without the addition of the fungicidal composition), the growth inhibition rate of Botrytis cinerea (%) was calculated. The test was carried out in duplicate. Further, the expected value of the growth inhibition was calculated based on Colby's equation.
In addition, the Colby's equation is E=M+N−MN/100. Here, E is the expected value of a growth inhibition rate (%), M is the growth inhibition rate (%) calculated from the measurement with the use of the drug I alone, and N is the growth inhibition rate (%) calculated from the measurement with the use of the drug II alone. Additionally, in Tables, the expected values with the use of the drug alone were not shown, because they were the same as the values calculated from the measurement.
At the concentrations shown in Tables 6 to 8, the drug I and the drug II were dissolved separately in dimethyl sulfoxide. The obtained solution was mixed to prepare a fungicidal composition.
Using the same methods as in Example 1 and Comparative Example 1, the sterilization test was carried out. Additionally, in Tables, the expected values with the use of the drug alone were not shown, because they were the same as the values calculated from the measurement.

In test [2] the test system is cucumber gray mold disease pathogens (Botrytis cinerea). Nature of the test: Control test for cucumber gray mold disease (sprayed cucumber seedlings). The format is in vivo. As to conditions: Botrytis cinerea. Here is the method:
The drug I and the drug II were dissolved in an organic solvent and a surfactant, and the prepared mixed emulsifiable concentrate was diluted with water to a predetermined concentration, and sprayed to cucumber seedlings that had been cultivated in unglazed pots (cultivar “Sagamihanjiro” cotyledon stage). Additionally, in Tables, the symbol A indicating the drug I represents a nitrogen-containing heterocyclic compound represented by the formula (A), the symbol B indicating the drug I represents a nitrogen-containing heterocyclic compound represented by the formula (B), and the symbol C indicating the drug I represents a nitrogen-containing heterocyclic compound represented by the formula (C). Further, the number indicating the drug II represents each of the compounds described in the numbers described above. Additionally, “-” in Tables represents that the drug was not used.
After air-drying at room temperature, a suspension of the conidia of cucumber gray mold disease pathogens (Botrytis cinerea) was inoculated by dropwise addition and held in a dark room at 20° C. with a high humidity for 3, 4, or 5 days. By investigation on the state of lesion appearance in leaves with comparison with a non-treatment case, the controlling effect was determined. The test was carried out in duplicate. In addition, the expected value of the controlling effect was calculated based on Colby's equation.
At the same time, in Comparative Example, in the case of using the drug I only and the case of using the drug II only, the test was carried out by the same method.
Additionally, the Colby's equation is E=M+N−MN/100. Here, E is the expected value of the controlling effect (%), M is the controlling effect (%) calculated from the measurement with the use of the drug I alone, and N is the controlling effect (%) calculated from the measurement with the use of the drug II alone. Additionally, in Tables, the expected values with the use of the drug alone were the same as the values calculated from the measurement, and were thus not shown.

Setting [3] is: Example 1 (Tables 1-5), drug II alone 2 ppm.
The mark [4] stands for this setting: Example 1 (Tables 1-5), drug II alone 10 ppm.
The mark [5] stands for this setting: Example 1 (Tables 1-5), drug II alone 0.08 ppm.
Setting [6] is: Example 2 (Tables 6-8), drug II alone 10 ppm.

Usually inhibition stands for the share of the control response that was lost under treatment. `C[C@@]1(c2ccc(Oc3ccccc3)cc2)OC(=O)N(Nc2ccccc2)C1=O` (racemic) [Drug 9, Famoxadone]: the inhibition at 2 ppm in test [1] (setting [3]) was 0%.
As for `O=C(Cc1ccccc1)N/C(=N\OCC1CC1)c1c(C(F)(F)F)ccc(F)c1F` [Drug 1, Cyflufenamid], in test [1] (setting [4]), the inhibition at 10 ppm is 9%. The pest or weed control at 25 ppm in test [2] (120 h, Table 10, 5 days after inoculation, drug II alone 25 ppm, read-out: Control effect) came to 0%.
Take `COCC(=O)N(c1c(C)cccc1C)C(C)C(=O)OC` (centres unmarked) [Drug 6, Metalaxyl]: the inhibition at 10 ppm in test [1] (setting [4]) came to 0%.
Regarding `CCNC(=O)NC(=O)/C(C#N)=N/OC` [Drug 7, Cymoxanil], the inhibition at 2 ppm in test [1] (setting [3]) worked out at 0%.
Turning to `CC(C)OC(=O)N[C@H](C(=O)N[C@H](C)c1nc2ccc(F)cc2s1)C(C)C` [Drug 8, Benthiavalicarb-isopropyl], in test [1] (setting [4]), the inhibition at 10 ppm worked out at 0%.
In the case of `CCCCCCCCc1c(CC)nc2ncnn2c1N` [Drug 10, Ametoctradin], the Growth inhibition rate in test [1] (setting [4]) came to 0%.
For `O=C(NCc1ncc(C(F)(F)F)cc1Cl)c1c(Cl)cccc1Cl` [Drug 11, Fluopicolide], in test [1] (setting [4]), the Growth inhibition rate came to 6%.
For the compound `CCC(C)(NC(=O)c1cc(Cl)c(C)c(Cl)c1)C(=O)CCl` (centres unmarked) [Drug 12, Zoxamide], in test [1] (Example 1 (Tables 1-5)), the inhibition at 0.4 ppm worked out at 3%.
As for `CCO[PH](=O)O` [Drug 13, Fosetyl], the inhibition at 0.08 ppm in test [1] (setting [5]) amounted to 2%.
As to `Cc1ccc(-c2c(Cl)nc(C#N)n2S(=O)(=O)N(C)C)cc1` [Drug 14, Cyazofamid], the inhibition at 10 ppm in test [1] (setting [4]) stood at 0%.
As to `CCCOc1nc2ccc(I)cc2c(=O)n1CCC` [Drug 15, Proquinazid], in test [1] (setting [4]), the Growth inhibition rate is on record as 0%.
As to `COc1cc(C)c(C(=O)c2c(OC)ccc(Br)c2C)c(OC)c1OC` [Drug 16, Metrafenone], the inhibition at 10 ppm in test [1] (setting [4]) was found to be 0%.
Compound `Fc1ccc(Oc2ccnc3cc(Cl)cc(Cl)c23)cc1` [Drug 17, Quinoxifen] registered a Growth inhibition rate in test [1] (setting [3]) of 0%.
Regarding `CC(C)Oc1cccc(NC(=O)c2ccccc2C(F)(F)F)c1` [Drug 18, Flutolanil], the inhibition at 10 ppm in test [1] (setting [4]) came out at 0%.
Turning to `Cc1c(Cl)cc(-c2ccc(=O)[nH]n2)cc1Cl` [Drug 19, Diclomezin], in test [1] (setting [4]), the Growth inhibition rate is given as 0%.
With `N#Cc1c[nH]cc1-c1cccc2c1OC(F)(F)O2` [Drug 20, Fludioxonil], the inhibition at 0.02 ppm in test [1] (Example 1 (Tables 1-5)) was 39%.
For the compound `CC1COC(Cn2cncn2)(c2ccc(Oc3ccc(Cl)cc3)cc2Cl)O1` (centres unmarked) [Drug 21, Difenoconazole], the inhibition at 0.4 ppm in test [1] (Example 1 (Tables 1-5)) worked out at 36%.
Take `CC(C)(C)C(O)(CCc1ccc(Cl)cc1)Cn1cncn1` (centres unmarked) [Drug 22, Tebuconazole]: the inhibition at 0.08 ppm in test [1] (setting [5]) was 34%.
`CC1=C(C(=O)Nc2ccccc2)SCCO1` [Drug 23, Carboxin]: the inhibition at 0.4 ppm in test [1] (Example 1 (Tables 1-5)) came out at 0%.
In the case of `CN(C)C(=S)SSC(=S)N(C)C` [Drug 24, Thiram], the inhibition at 0.08 ppm in test [1] (setting [5]) came out at 30%.
With `N#Cc1c(Cl)c(Cl)c(Cl)c(C#N)c1Cl` [Drug 25, Chlorothalonil], the inhibition at 0.08 ppm in test [1] (setting [5]) worked out at 4%.
The same measure, in the same setting: next, `CON=C(C(=O)OC)c1ccccc1CON=C(C)c1cccc(C(F)(F)F)c1` [Drug 26, Trifloxystrobin]: 32%.
The compound `CO/C=C(/C(=O)OC)c1ccccc1Oc1cc(Oc2ccccc2C#N)ncn1` [Drug 27, Azoxystrobin] registered a Growth inhibition rate in test [1] (setting [5]) of 30%.
Regarding `CO/N=C(/C(=O)OC)c1ccccc1COc1ccccc1C` [Drug 28, Kresoxim-methyl], the inhibition at 0.08 ppm in test [1] (setting [5]) is 20%.
The same measure, in the same setting: next, `O=C(NCCc1ncc(C(F)(F)F)cc1Cl)c1ccccc1C(F)(F)F` [Drug 30, Fluopyram]: 16%.
For `O=[N+]([O-])c1cc(C(F)(F)F)c(Cl)c([N+](=O)[O-])c1Nc1ncc(C(F)(F)F)cc1Cl` [Drug 31, Fluazinam], the inhibition at 0.02 ppm in test [1] (Example 1 (Tables 1-5)) was 20%.
`O=C1C2CC=CCC2C(=O)N1SC(Cl)(Cl)Cl` (centres unmarked) [Drug 33, Captan]: in test [1] (Example 1 (Tables 1-5)), the inhibition at 0.02 ppm was determined as 28%.
On to `Cc1cc(C2CC2)nc(Nc2ccccc2)n1` [Drug 34, Cyprodinil], for which the inhibition at 0.02 ppm in test [1] (Example 1 (Tables 1-5)) is 0%.
Turning to `COP(=S)(OC)Oc1c(Cl)cc(C)cc1Cl` [Drug 35, Tolclofos-methyl], the inhibition at 10 ppm in test [1] (setting [4]) was found to be 35%.
Regarding `CC(C)NC(=O)N1CC(=O)N(c2cc(Cl)cc(Cl)c2)C1=O` [Drug 36, Iprodione], the inhibition at 0.4 ppm in test [1] (Example 1 (Tables 1-5)) amounted to 39%.
Take `O=C1c2ccccc2C(=O)N1SC(Cl)(Cl)Cl` [Drug 37, Folpet]: in test [1] (Example 1 (Tables 1-5)), the inhibition at 0.02 ppm was determined as 10%.
For `Cc1cc(C(F)(F)F)nn1CC(=O)N1CCC(c2nc(C(=O)N(C)C3CCCc4ccccc43)cs2)CC1` (centres unmarked) [Drug 39], the inhibition at 10 ppm in test [1] (setting [4]) amounted to 13%.
With `CNC(=O)/C(=N/OC)c1ccccc1CO/N=C(C)/C(=N/OC)C(/C)=N/OC` [Drug 40, Orysastrobin], in test [1] (setting [6]), the Growth inhibition rate came to 58%.
Consider `CC(C)OC(=O)C(C(=O)OC(C)C)=C1SCCS1` [Drug 41, Isoprothiolane], for which the inhibition at 10 ppm in test [1] (setting [6]) was 10%.
`O=[N+]([O-])NC1=NCCN1Cc1ccc(Cl)nc1` [Drug 45, Imidacloprid]: the inhibition at 10 ppm in test [1] (setting [6]) was determined as 0%.
On the same count and under the same terms, the value for `CN1COCN(Cc2cnc(Cl)s2)/C1=N\[N+](=O)[O-]` [Drug 46, Thiamethoxam] was 0%.
Still for that read-out and setting: the value for `CN/C(=N\[N+](=O)[O-])NCc1cnc(Cl)s1` [Drug 47, Clothianidin] was 4%; that for `CCOP(=S)(OCC)Oc1nc(Cl)c(Cl)cc1Cl` [Drug 48, Chlorpyrifos] was 0%; that for `CS/C(C)=N\OC(=O)N(C)SN(C)C(=O)O/N=C(\C)SC` [Drug 49, Thiodicarb] was 0%.
Same read-out and setting: the value for `CN/C(=N/CC1CCOC1)N[N+](=O)[O-]` (centres unmarked) [Drug 51, Dinotefuran] was 0%; that for `CCOc1ccc(C(C)(C)COCc2cccc(Oc3ccccc3)c2)cc1` [Drug 52, Etofenprox] was 4%; that for `N#Cc1nn(-c2c(Cl)cc(C(F)(F)F)cc2Cl)c(N)c1[S+]([O-])C(F)(F)F` (centres unmarked) [Drug 53, Fipronil] was 12%.
Regarding `CC[S+]([O-])c1c(C#N)nn(-c2c(Cl)cc(C(F)(F)F)cc2Cl)c1N` (centres unmarked) [Drug 54, Ethiprole], in test [1] (setting [6]), the inhibition at 10 ppm was determined as 2%.
As for `CC1=NNC(=O)N(/N=C/c2cccnc2)C1` [Drug 55, Pymetrozine], the inhibition at 10 ppm in test [1] (setting [6]) is 3%.
With `Cc1nc(C(F)(F)F)c(C(=O)Nc2c(Br)cc(OC(F)(F)F)cc2Br)s1` [Drug 56, Thifluzamide], the inhibition at 10 ppm in test [1] (setting [6]) was 28%.
Still for that read-out and setting: the value for `CC(C)N1C(=O)N(c2ccccc2)CS/C1=N\C(C)(C)C` [Drug 57, Buprofezin] was 0%.
In the case of `O=C(Nc1ccccc1-c1ccc(Cl)cc1)c1cccnc1Cl` [Drug 58, Boscalid], the pest or weed control at 0.4 ppm in test [2] (96 h, 4 days after inoculation, drug II alone 0.4 ppm, read-out: Control effect (%)) amounted to 0%. In test [2] (96 h, 4 days after inoculation, drug II alone 1.6 ppm, read-out: Control effect (%)), the pest or weed control at 1.6 ppm stood at 0%. Besides, the pest or weed control at 6.3 ppm in test [2] (96 h, 4 days after inoculation, drug II alone 6.3 ppm, read-out: Control effect (%)) came to 39%.
Regarding `CCOCn1c(-c2ccc(Cl)cc2)c(C#N)c(Br)c1C(F)(F)F` [Drug 59, Chlorfenapyr], the pest or weed control at 400 ppm in test [2] (96 h, 4 days after inoculation, drug II alone 400 ppm, read-out: Control effect (%)) was found to be 0%.
Manzeb [Drug 32] returned a Growth inhibition rate in test [1] (setting [3]) of 11%.
As to Spinosad [Drug 50], the Growth inhibition rate in test [1] (setting [6]) was 0%.
